Literature values, collected in patent US20030232367A1, “Differentially expressed genes involved in angiogenesis, the proteins encoded thereby, and methods of using the same” (priority 2002, published 2003).

System: vascular endothelial cell proliferation
Settings: endothelial vs tumor cell proliferation (Ingber et al. 1990)

Compound: CO[C@@H]1[C@H](OC(=O)NC(=O)CCl)CC[C@]2(CO2)[C@H]1[C@@]1(C)O[C@@H]1CC=C(C)C [AGM-1470]
- half-maximal inhibition of vascular endothelial cell proliferation at lower concentration than tumor cell proliferation: 4 logs
